The term IC50 denotes the point on the concentration scale where inhibition reaches its midpoint.

In the experiment the target is T1, Cholesteryl ester transfer protein (Homo sapiens, UniProt P11597).
T1 sequence (P11597 whole entry): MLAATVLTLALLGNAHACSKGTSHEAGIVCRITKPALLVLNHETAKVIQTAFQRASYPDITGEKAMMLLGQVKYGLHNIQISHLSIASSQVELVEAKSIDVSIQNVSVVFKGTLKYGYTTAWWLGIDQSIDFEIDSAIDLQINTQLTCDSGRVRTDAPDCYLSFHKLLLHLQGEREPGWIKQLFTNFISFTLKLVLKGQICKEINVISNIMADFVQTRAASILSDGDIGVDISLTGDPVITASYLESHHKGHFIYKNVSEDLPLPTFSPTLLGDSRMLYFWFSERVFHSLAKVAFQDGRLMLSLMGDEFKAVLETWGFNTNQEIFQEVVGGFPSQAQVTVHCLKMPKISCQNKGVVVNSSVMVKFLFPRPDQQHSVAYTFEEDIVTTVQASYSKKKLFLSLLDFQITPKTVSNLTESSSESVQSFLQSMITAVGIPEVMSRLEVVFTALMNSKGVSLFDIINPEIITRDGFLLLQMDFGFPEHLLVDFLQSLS
The experiment can be described thus: Inhibition of recombinant full length human CETP expressed in CHO cells assessed as reduction in BODIPY-CE transfer measured after 1 to 3 hrs by fluorescence assay. In kind it is cell-based.

With `CCOC(=O)N1c2ccc(C(F)(F)F)cc2[C@@H](NC(=O)CC(=O)O[C@H]2CC[C@]3(C)[C@H]4CC=C5[C@@H]6[C@@H](C)[C@H](C)CC[C@]6(C(=O)O)CC[C@@]5(C)[C@]4(C)CC[C@H]3C2(C)C)C[C@H]1CC`, the IC50 came to 4.42 µM. To `CCOC(=O)N1c2ccc(C(F)(F)F)cc2[C@@H](NC(=O)CC(=O)O[C@H]2CC[C@]3(C)[C@H]4CC=C5[C@@H]6CC(C)(C)CC[C@]6(C(=O)O)CC[C@@]5(C)[C@]4(C)CC[C@H]3C2(C)C)C[C@H]1CC` belongs > 50 µM; to `CCOC(=O)N1c2ccc(C(F)(F)F)cc2[C@@H](NC(=O)CCCC(=O)O[C@H]2CC[C@]3(C)[C@H]4CC=C5[C@@H]6CC(C)(C)CC[C@]6(C(=O)O)CC[C@@]5(C)[C@]4(C)CC[C@H]3C2(C)C)C[C@H]1CC`, > 50 µM; to `CCOC(=O)N1c2ccc(C(F)(F)F)cc2[C@@H](NC(=O)CCC(=O)O[C@H]2CC[C@]3(C)[C@H]4CC=C5[C@@H]6[C@@H](C)[C@H](C)CC[C@]6(C(=O)O)CC[C@@]5(C)[C@]4(C)CC[C@H]3C2(C)C)C[C@H]1CC`, 0.28 µM. Regarding `CCOC(=O)N1c2ccc(C(F)(F)F)cc2[C@@H](NC(=O)CCCC(=O)O[C@H]2CC[C@]3(C)[C@H]4CC=C5[C@@H]6[C@@H](C)[C@H](C)CC[C@]6(C(=O)O)CC[C@@]5(C)[C@]4(C)CC[C@H]3C2(C)C)C[C@H]1CC`, the IC50 was 3.79 µM.

`CCOC(=O)N1c2ccc(C(F)(F)F)cc2[C@@H](NC(=O)CCC(=O)O[C@H]2CC[C@]3(C)[C@H]4CC=C5[C@@H]6CC(C)(C)CC[C@]6(C(=O)O)CC[C@@]5(C)[C@]4(C)CC[C@H]3C2(C)C)C[C@H]1CC`: the IC50 is > 50 µM.

The values above are taken from ChEMBL document CHEMBL4002550, “Fragment-based discovery of novel pentacyclic triterpenoid derivatives as cholesteryl ester transfer protein inhibitors” (Eur J Med Chem, 2017).
